One molecule from US20190290769A1, “Hydrogel Compositions” (The Trustees of the University of Pennsylvania, priority 2018, published 2019) can be followed below.

The test relates to T3565 cultured glioma stem cell. As to the kind of experiment: MTS assay of valproic acid on glioma stem cell viability. Format: cell-based. As to conditions: T3565 cells, varying concentrations. The text has this:
In vitro testing of valproic acid on glioma stem cell and non-stem cells.
In general terms: Tetrazolium assays rely on reduction of a dye to a coloured formazan, in cell work by metabolically active cells.

Converted amounts (≈) assume the structure as drawn.

Regarding `CCCC(CCC)C(=O)O` [valproic acid], 600 µg/mL (≈ 4.16 mM) corresponded to half-maximal inhibition (IC50).

As usually defined, the IC50 is the point on the concentration scale where inhibition reaches its midpoint. Read a low IC50 as higher potency.
